We go through 2 molecules from US20220025336A1, “METHOD FOR PRODUCING INSULIN-PRODUCING CELLS, AND COMPOSITION” (KATAOKA CORPORATION, priority 2018, published 2022).

One assay has as its system human fibroblasts. Kind of assay: Direct induction from human fibroblasts into insulin-producing cells; amount of insulin secreted. It counts as cell-based. The source says: (§1) The insulin-producing cell produced by the present invention process can be detected, identified, and isolated using, for example, a morphological change of a cell, a characteristic property of an insulin-producing cell, or a specific marker (e.g., an anti-insulin antibody). Moreover, the secretory capacity of the obtained insulin-producing cell can also be evaluated by quantifying the amount of secreted insulin using sandwich ELISA.
The human fibroblasts used as the material were purchased from DS Pharma Biomedical Co., Ltd. The fibroblasts are derived from human skin.
Human fibroblasts were seeded in 35-mm dishes coated with gelatin (Cat#: 190-15805, manufactured by Wako Pure Chemical Industries, Ltd.) at 5×10^4 cells/dish, and cultured in DMEM medium (manufactured by Gibco) supplemented with 10% fetal bovine serum (FBS), 100 U/mL penicillin, and 100 μg/mL streptomycin until confluent under conditions of 37° C. and 5% CO2. Note that DMEM refers to Dulbecco's Modified Eagle's Medium.
The medium of dishes of the human fibroblasts described above was replaced with the differentiation induction medium described below.
Differentiation induction medium: Advanced DMEM/F-12 (Cat#: 12634010; manufactured by Gibco) supplemented with ITS-X (Cat#: 51500056, manufactured by Gibco), non-essential amino acids (NEAA; Cat#: 11140050, manufactured by Gibco), Glutamine (manufactured by Gibco; final concentration: 2 mmol/L), Nicotinamide (Cat#: 72340-10OG, manufactured by Sigma-Aldrich; final concentration: 10 mmol/L), Exendin-4 (Cat#: av120214, manufactured by Abcam; final concentration: 100 ng/mL), 100 U/mL penicillin, 100 μg/mL streptomycin, insulin, and low molecular weight compounds described below, with or without addition of 10% fetal bovine serum (FBS, manufactured by Hyclone).
Subsequently, the cells were cultured under conditions of 37° C. and 5% CO2 while the medium was changed to the medium of the same composition every three days. […]

For assay [1], the system named is human adipose tissue-derived mesenchymal stem cells (AdMSC). Kind of assay: Direct induction from human adipose tissue-derived mesenchymal stem cells (AdMSC) into insulin-producing cells; amount of insulin secreted. The class given is cell-based. The conditions noted are these: FIG. 5; 120 μg/mL insulin; cultured 14 days.
Text: as §1
Human mesenchymal stem cells isolated from adipose tissue were purchased from Takara Bio Co., Ltd.
Human mesenchymal stem cells were seeded in 35-mm dishes coated with gelatin (Cat#: 190-15805, manufactured by Wako Pure Chemical Industries, Ltd.) at 5×10^4 cells/dish, and cultured in Mesenchymal Stem Cell Growth Medium 2 (Cat#: C-28009; manufactured by Takara Bio Co., Ltd.) supplemented with 100 U/mL penicillin and 100 μg/mL streptomycin until the cells were almost confluent under conditions of 37° C. and 5% CO2.
The medium of dishes of the human mesenchymal stem cells described above was replaced with the differentiation induction medium described below. […]

As for “insulin: Human recombinant insulin (Cat#: 093-06351; Wako) added to the differentiation induction medium”, in the assay with human fibroblasts (FIG. 2, 120 μg/mL vs 20 μg/mL insulin in differentiation induction medium, cultured 14 days), the “increase of the amount of insulin secretion by induction with a high concentration of insulin” value is on record as “about 3 times”. For the same molecule, the “amount of insulin secreted as a function of insulin concentration in the differentiation induction medium” value in the assay with human fibroblasts (FIG. 3, insulin up to 100 μg/mL, cultured 14 days) is “the greater was the amount of insulin secreted”. Moreover, the “amount of insulin secreted with a high concentration of insulin in the differentiation induction medium” value in assay [1] is given as “increased markedly”.
`CC(C)CCN1c2nc(Nc3cc(F)c(O)c(F)c3)ncc2N(C)C(=O)C1C` (stereo not shown) [BI-D1870, reference compound]: the “insulin secretion / secretory capacity of induced cells by combination of low molecular weight compounds” value in the assay with human fibroblasts (FIG. 4, 3C (CHIR99021, BRD7389, forskolin) without BRD7389, or with BI-D1870 5 μM or 10 μM instead of BRD7389, no LY294002, 14 days) is recorded as “insulin-producing cells with a higher secretory capacity were also obtained”.
